The values below come from patent US20250027035A1, “HEAVY METAL-ANTIBIOTIC MULTIPLE RESISTANT BACTERIA AND ITS APPLICATION” (priority 2023, published 2025).

The test system of the first assay is Rossellomorea oryzaecorticis ZC255. The assay is described as follows: Metal tolerance of the strain in 2216E liquid medium containing heavy metal. The following applies: 2216E liquid medium containing the heavy metal. Type of assay: cell-based. The protocol:
• Step 1: the single colonies in Embodiment 1 ‘2.1 morphological characteristics’ are selected and added to the 2216E liquid medium for 24 h to obtain the seed liquid, and then it is added to the liquid containing heavy metals or antibiotics for 48 h. • Step 2: the concentration of heavy metals/antibiotics before and after the addition of seed solution is measured by atomic absorption.
In addition, the highest tolerance concentration of the strain to Cd2+is 820 mg/L; the highest tolerance concentration of Zn2+, Ni2+, Pb2+and Cr3+is 2660 mg/L, 1210 mg/L, 1640 mg/L and 400 mg/L respectively.
In the case of `[Ni+2]` [Ni2+], the “maximum (highest) tolerance concentration of the strain” value (“maximum” below) was 1210 mg/L. In the case of `[Zn+2]` [Zn2+], the “maximum” value is listed as 2660 mg/L. On to `[Cd+2]` [Cd2+], for which the “maximum” value is recorded as 820 mg/L.

Consider `[Pb+2]` [Pb2+], for which the “maximum” value was 1640 mg/L. Regarding `[Cr+3]` [Cr3+], the “maximum” value was 400 mg/L.

The next assay shares this test system. The assay is described as follows: Drug sensitivity test of strains (antibiotic tolerance). As to Results of drug sensitivity test of strains: key: R: resistance; S: sensitivity; I: betweenness. Type of assay: cell-based.
Settings: not given
Take Gentamicin: the “Results of drug sensitivity test of strains” value (“Results” for short) is recorded as “R” and the “drug sensitivity of the strain, result in words” value (shortened to “drug sensitivity of the strain”) was “drug resistance”. Regarding `CC[C@H]1OC(=O)[C@H](C)[C@@H](O[C@H]2C[C@@](C)(OC)[C@@H](O)[C@H](C)O2)[C@H](C)[C@@H](O[C@@H]2O[C@H](C)C[C@H](N(C)C)[C@H]2O)[C@](C)(O)C[C@@H](C)C(=O)[C@H](C)[C@@H](O)[C@]1(C)O` [Erythromycin], the “Results” value was “R” and the “drug sensitivity of the strain” value is recorded as “drug resistance”.

As to `CC[C@H]1OC(=O)[C@H](C)[C@@H](O[C@H]2C[C@@](C)(OC)[C@@H](O)[C@H](C)O2)[C@H](C)[C@@H](O[C@@H]2O[C@H](C)C[C@H](N(C)C)[C@H]2O)[C@](C)(OC)C[C@@H](C)C(=O)[C@H](C)[C@@H](O)[C@]1(C)O` [Clarithromycin], the “Results” value is on record as “S”. As for `CO[C@H]1/C=C/O[C@@]2(C)Oc3c(C)c(O)c4c(O)c(c(/C=N/N5CCN(C)CC5)c(O)c4c3C2=O)NC(=O)/C(C)=C\C=C\[C@H](C)[C@H](O)[C@@H](C)[C@@H](O)[C@@H](C)[C@H](OC(C)=O)[C@@H]1C` [Rifampicin], the “Results” value is recorded as “I”. As for `O=C(N[C@H](CO)[C@H](O)c1ccc([N+](=O)[O-])cc1)C(Cl)Cl` [Chloramphenicol], the “Results” value was “S”. For the compound `NC[C@H]1O[C@H](O[C@H]2[C@H](O)[C@@H](O[C@H]3O[C@H](CO)[C@@H](O)[C@H](N)[C@H]3O)[C@H](N)C[C@@H]2N)[C@H](N)C[C@@H]1O` [Tobramycin], the “Results” value was “R” and the “drug sensitivity of the strain” value is given as “drug resistance”.

With Polymyxin B, the “Results” value was “R” and the “drug sensitivity of the strain” value is listed as “drug resistance”.

Regarding `CC1(C)S[C@@H]2[C@H](NC(=O)[C@H](N)c3ccccc3)C(=O)N2[C@H]1C(=O)O` [Ampicillin], the “Results” value is recorded as “S”. Turning to Neomycin, the “Results” value was “R” and the “drug sensitivity of the strain” value was “drug resistance”.

For `CC1COc2c(N3CCN(C)CC3)c(F)cc3c(=O)c(C(=O)O)cn1c23` (stereo not shown) [Ofloxacin], the “Results” value was “R”. As to `CO/N=C(\C(=O)N[C@@H]1C(=O)N2C(C(=O)O)=C(CSc3nc(=O)c(=O)[nH]n3C)CS[C@H]12)c1csc(N)n1` [Ceftriaxone], the “Results” value was “R” and the “drug sensitivity of the strain” value is on record as “drug resistance”. Take `CN(C)[C@@H]1C(O)=C(C(N)=O)C(=O)[C@@]2(O)C(O)=C3C(=O)c4c(O)cccc4[C@@](C)(O)[C@H]3C[C@@H]12` [Tetracycline]: the “Results” value was “R”. With `[H]/N=C(/N)N[C@H]1[C@H](O)[C@@H](O)[C@H](O[C@@H]2O[C@@H](C)[C@](O)(C=O)[C@H]2O[C@@H]2O[C@@H](CO)[C@H](O)[C@@H](O)[C@@H]2NC)[C@@H](N/C(N)=N\[H])[C@@H]1O` [Streptomycin], the “Results” value is on record as “R” and the “drug sensitivity of the strain” value was “drug resistance”.

`CCn1cc(C(=O)O)c(=O)c2cc(F)c(N3CCNCC3)cc21` [Norfloxacin]: the “Results” value is “R” and the “drug sensitivity of the strain” value is given as “drug resistance”. Take `CCC[C@@H]1C[C@@H](C(=O)N[C@@H]([C@H]2O[C@H](SC)[C@H](O)[C@@H](O)[C@H]2O)[C@@H](C)O)N(C)C1` [Lincomycin]: the “Results” value was “R” and the “drug sensitivity of the strain” value is listed as “drug resistance”.

In the case of `CN[C@H](CC(C)C)C(=O)N[C@H]1C(=O)N[C@@H](CC(N)=O)C(=O)N[C@H]2C(=O)N[C@H]3C(=O)N[C@H](C(=O)N[C@H](C(=O)O)c4cc(O)cc(O)c4-c4cc3ccc4O)[C@H](O)c3ccc(c(Cl)c3)Oc3cc2cc(c3O[C@@H]2O[C@H](CO)[C@@H](O)[C@H](O)[C@H]2O[C@H]2C[C@](C)(N)[C@H](O)[C@H](C)O2)Oc2ccc(cc2Cl)[C@H]1O` [Vancomycin], the “Results” value is given as “S”.

With Penicillin, the “Results” value is recorded as “S”. With `CO/N=C(\C(=O)N[C@@H]1C(=O)N2C(C(=O)O)=C(COC(C)=O)CS[C@H]12)c1csc(N)n1` [Cefotaxime], the “Results” value was “I”. As to `CC1(C)S[C@@H]2[C@H](NC(=O)C(C(=O)O)c3ccccc3)C(=O)N2[C@H]1C(=O)O` (stereo partly shown) [Carbenicillin], the “Results” value was “S”. For `NC[C@H]1O[C@H](O[C@H]2[C@H](O)[C@@H](O[C@H]3O[C@H](CO)[C@@H](O)[C@H](N)[C@H]3O)[C@H](N)C[C@@H]2N)[C@H](O)[C@@H](O)[C@@H]1O` [Kanamycin], the “Results” value is listed as “R”.
